Laboratory results reported in patent publication US9284297B2, “Halofuginone analogs for inhibition of tRNA synthetases and uses thereof” (President and Fellows of Harvard College, priority 2008, dated 2016).

What was measured:
[1] = system: CD4+ CD25− T cells (Th1, Th2, iTreg differentiation, proliferation, CD25), CD8+ T cells, B cells; experiment: T and B cell activation, proliferation and Th1, Th2, iTreg differentiation; format: cell-based, murine
Description: Cytokines secreted into media supernatant were measured using the mouse Th1/Th2 cytometric bead array (CBA—BD Pharmingen) in accordance with manufacturers instructions.

passive EAE = experiment: Passive EAE, transfer of PLP-reactive T cells; format: in vivo, mice; settings: 2 μg HF daily i.p.
From the text: The ability of systemic HF treatment to block IL-17 expression and associated autoimmune inflammation in vivo was examined using two distinct models of experimental autoimmune encephalomyelitis (EAE). […] The second model, a passive model of EAE induction, is initiated by the transfer of myelin proteolipid protein (PLP)-reactive T cells into lymphopenic hosts.
Passive EAE was induced by intravenous transfer of purified CD3^+ splenic T cells isolated from PLP TCR transgenic B10.S mice into syngeneic RAG2-deficient mice (3×10^6 cells/mouse) (Waldner et al., J. Clin. Invest. 113(7):990-997, 2004).
Mice were injected daily with HF (2 μg/mouse) or vehicle control (DMSO) i.p. Clinical signs of EAE were assessed according to the following score: 0, no signs of disease; 1, flaccid tail; 2, weak gait/hind limb paresis; 3, hind limb paralysis; 4, tetraplegia; 5, moribund. Cytokine production during EAE was determined either in peripheral T cells isolated from spleen or lymph nodes of mice prior to disease onset (day 6-10) or in mononuclear cells isolated from the brain and spinal cords of mice with severe disease (clinical score ≧2) between days 15-20. Briefly, splenocytes were stained for intracellular cytokines following erythrocyte lysis with ammonium chloride buffer. T cells were isolated from brain and spinal cords of mice with active EAE following perfusion with cold PBS. […]

[2] = system: human CD4+ T cells (CD4+ CD45RO+); experiment: IL-17 and IFNγ expression by human memory CD4+ T cells co-cultured with monocytes; format: cell-based; settings: 100 nM HF; expanded for 6 days
Description: FIG. 5F is a set of FACS analyses of purified primary human memory T cells (CD4^+ CD45RO^+) activated in co-culture with CD14^+ monocytes and treated with DMSO, 100 nM HF or 100 nM MAZ1310. T cells were expanded for 6 days and intracellular cytokine expression was determined following restimulation with PMA plus ionomycin.
In light of reports that IL-17 expression may be differentially regulated in murine versus human T cells (Manel et al., Nat. Immunol. 9:641, 2008; Wilson et al., Nat. Immunol. 8:950, 2007; Acosta-Rodriguez et al., Nat. Immunol. 8:942, 2007), HF modulation of IL-17 expression by human CD4^+ T cells was investigated. […] Therefore, HF selectively limits IL-17 expression in both human and mouse T cells.
Primary murine T and B cells were purified by cell sorting. CD4^+ CD25^− T cells were positively selected using CD4 dynabeads and detachabeads (Dynal, Oslo, Norway) per manufacturers instructions followed by nTreg depletion using a CD25 microbead kit (Miltenyi biotech, Auburn, Calif.). Naïve (CD4^+ CD62Lhi CD44lo Foxp3gfp- or CD4^+ CD62Lhi CD44lo CD25^−) T cells were purified from Foxp3gfp or Foxp3ko mice, respectively, by FACS sorting. […] Resting human CD4^+ T cells were isolated from PBMC of healthy human donors using Dynal CD4 Positive Isolation Kit (Invitrogen, Carlsbad, Calif.) as previously described (Sundrud et al., Blood 106:3440, 2005). […]

O=C(CC1NCCCC1O)Cn1cnc2cc(Br)c(Cl)cc2c1=O (stereo not drawn) [Compound 1, 7-bromo-6-chloro-3-[3-(3-hydroxy-2-piperidinyl)-2-oxopropyl]-4(3H)-quinazolinone]
concentration inducing general inhibition of T and B cell activation, proliferation, and effector function [1]: > 20 nM | effect on T cell proliferation, CD25 upregulation, IL-2, TNF, IFNγ production ([1]; 1-10 nM): did not affect T cell proliferation, CD25 upregulation, or production of IL-2, TNF, or IFNγ | effect on Th1, Th2, iTreg differentiation ([1]; polarizing cytokine conditions, IFNγ, IL-4, Foxp3 expression): failed to modulate Th1, Th2 or iTreg differentiation | EAE disease symptoms, passive model (passive EAE): developed disease symptoms with kinetics and severity similar to control treated animals | IFNγ expression by human T cells [2]: essentially unaffected | IL-17 expression by human T cells [2]: greatly reduced both the percentage of human T cells expressing IL-17 and the amount of IL-17 produced
